Results as given in EPA's ToxValDB 9.5.
Several values for one entry are separate records, joined by “and”; a condition that tells them apart may be missing. Equal entries are not always repeated.

System: Rattus norvegicus
[1] = reproduction developmental, oral, gavage, M, Crl:CD(SD), generation: P0, P0: General Toxicity: Whole Body: Necropsy Appeared Normal + P0: Nervous: CNS: Latency to Mount
[2] = reproduction developmental, oral, gavage, M, Sprague-Dawley, generation: P0, P0: General Toxicity: Whole Body: Body Weight Change + P0: General Toxicity: Whole Body: Clinical Observations + P0: General Toxicity: Whole…
[3] = short-term, duration: 28 days, oral, gavage, F, Crl:CD(SD), Liver: Liver Weight, Relative + Liver: Liver, Enlarged + Teeth: Incisors, Discolored
[4] = short-term, duration: 28 days, oral, gavage, F, Crl:CD(SD), Whole Body: Dystocia
[5] = short-term, duration: 28 days, oral, gavage, M/F, Crl:CD(SD), Adrenal: Adrenal Cortex Histopathology + Blood: Chloride (CL), Blood + Blood: Globulin (G), Blood + Blood: Potassium (K), Blood + Blood: …
[6] = short-term, duration: 28 days, oral, gavage, M/F, Crl:CD(SD), Whole Body: Body Weight Change + Whole Body: Body Weight, Absolute
[7] = short-term, duration: 28 days, oral, gavage, M, Crl:CD(SD), Teeth: Incisors, Discolored + Teeth: Teeth, Mottled
[8] = subchronic, duration: 90 days, oral, gavage, F, Crl:CD(SD), Blood: Activated Partial Thromboplastin Time (APTT) + Blood: Cholesterol (CHOL), Total + Blood: Fluoride (Plasma) + Blood: Hematocrit (HCT…
[9] = subchronic, duration: 90 days, oral, gavage, F, Crl:CD(SD), Blood: Activated Partial Thromboplastin Time (APTT) + Blood: Hematocrit (HCT) + Blood: Hemoglobin (HGB) + Blood: Red Blood Cell (RBC) + …
[10] = subchronic, duration: 90 days, oral, gavage, F, Crl:CD(SD), Blood: Cholesterol (CHOL), Total + Kidney: Kidney Weight, Absolute + Kidney: Kidney Weight, Relative + Kidney: Kidney Weight, Relative to …
[11] = subchronic, duration: 90 days, oral, gavage, F, Crl:CD(SD), Blood: Fluoride (Plasma), Recovery + Blood: Inorganic Phosphorous (PHOS) + Calcium (CA) + Kidney: Blood Urea Nitrogen (BUN), Blood + Kidney…
[12] = subchronic, duration: 90 days, oral, gavage, F, Crl:CD(SD), General Toxicity: Whole Body: Body Weight Change + General Toxicity: Whole Body: Clinical Observations + General Toxicity: Whole Body: …
[13] = subchronic, duration: 90 days, oral, gavage, F, Crl:CD(SD), Hematologic: Blood: Activated Partial Thromboplastin Time (APTT) + Hematologic: Blood: Hematocrit (HCT) + Hematologic: Blood: Hemoglobin (…
[14] = subchronic, duration: 90 days, oral, gavage, F, Crl:CD(SD), Kidney: Kidney Weight, Absolute + Liver: Liver Histopathology + Liver: Liver Weight, Absolute + Renal: Urinalysis, Unspecified
[15] = subchronic, duration: 90 days, oral, gavage, F, Crl:CD(SD), Other Systems: Eye: Ophthalmology + Other Systems: Nasal Cavity: Nasal Cavity/Tubinates Inflammation, Chronic, Focal/Multifocal + Other …
[16] = subchronic, duration: 90 days, oral, gavage, F, Crl:CD(SD), Pancreas: Pancreas Histopathology
[17] = subchronic, duration: 90 days, oral, gavage, F, Sprague-Dawley, Hematologic: Blood: Activated Partial Thromboplastin Time (APTT) + Hematologic: Blood: Hematocrit (HCT) + Hematologic: Blood: Hemoglobin (…
[18] = subchronic, duration: 90 days, oral, gavage, M, Crl:CD(SD), Blood: Activated Partial Thromboplastin Time (APTT) + Blood: Albumin/Globulin (A/G) Ratio + Blood: Fluoride (Plasma) + Blood: Hematocrit (…
[19] = subchronic, duration: 90 days, oral, gavage, M, Crl:CD(SD), Blood: Activated Partial Thromboplastin Time (APTT) + Blood: Hematocrit (HCT) + Blood: Hemoglobin (HGB) + Blood: Red Blood Cell (RBC) + …
[20] = subchronic, duration: 90 days, oral, gavage, M, Crl:CD(SD), Blood: Fluoride (Plasma), Recovery + Blood: Hematocrit (HCT) + Blood: Hemoglobin (HGB) + Liver: Liver, Biliary Hyperplasia + Liver: Liver, …
[21] = subchronic, duration: 90 days, oral, gavage, M, Crl:CD(SD), Blood: Inorganic Phosphorous (PHOS) + Blood: Potassium (K), Blood + Kidney: Blood Urea Nitrogen (BUN), Blood + Kidney: Kidney Weight, …
[22] = subchronic, duration: 90 days, oral, gavage, M, Crl:CD(SD), Blood: Inorganic Phosphorous (PHOS), Blood + Blood: Potassium (K), Blood + Epididymis: Epididymis Weight, Relative + Kidney: Blood Urea …
[23] = subchronic, duration: 90 days, oral, gavage, M, Crl:CD(SD), Blood: Total Protein (TP), Blood + Kidney: Kidney Histopathology + Kidney: Kidney Weight, Absolute + Liver: Total Bilirubin (TBILI), Blood…
[24] = subchronic, duration: 90 days, oral, gavage, M, Crl:CD(SD), General Toxicity: Whole Body: Body Weight Change + General Toxicity: Whole Body: Clinical Observations + General Toxicity: Whole Body: …
[25] = subchronic, duration: 90 days, oral, gavage, M, Crl:CD(SD), Hematologic: Blood: Activated Partial Thromboplastin Time (APTT) + Hematologic: Blood: Hematocrit (HCT) + Hematologic: Blood: Hemoglobin (…
[26] = subchronic, duration: 90 days, oral, gavage, M, Sprague-Dawley, Hematologic: Blood: Activated Partial Thromboplastin Time (APTT) + Hematologic: Blood: Hematocrit (HCT) + Hematologic: Blood: Hemoglobin (…

OCCC(F)(F)C(F)(F)C(F)(F)C(F)(F)C(F)(F)C(F)(F)F [2-(Perfluorohexyl)ethanol]
NOAEL (reproduction developmental, oral, gavage, M/F, Crl:CD(SD), generation: P0, P0: Reproductive: Whole Body: Gestation Index): 25 mg/kg-day | LOAEL [1]: 225 mg/kg-day | NOAEL [1]: 75 mg/kg-day | NOAEL (reproduction developmental, oral, gavage, M, Crl:CD(SD), generation: P0, P0: Nervous: CNS: Latency to Mount): 225 mg/kg-day | LOAEL (reproduction developmental, oral, gavage, M, Sprague-Dawley, generation: P0, P0: Endocrine: Pituitary: Pituitary Gland Histopathology + P0: Endocrine: Pituitary: Pituitary Gland Weight, Absolute + P0: Endocrine: …): 125 mg/kg-day | LOAEL [2]: 125 mg/kg-day | NOAEL [2]: 25 mg/kg-day | NEL (short-term, duration: 4 weeks, inhalation, F, Crl:CD(SD), Adrenal: Adrenal Gland Weight, Absolute + Adrenal: Adrenal Gland Weight, Absolute, Recovery + Adrenal: Adrenal Gland Weight, Relative + …): 1490 mg/m3 | LEL (short-term, duration: 4 weeks, inhalation, F, Crl:CD(SD), Blood: Hematocrit (HCT) + Blood: Hemoglobin (HGB) + Blood: Red Blood Cell (RBC) + Bone: Decalcification, Trabeculae (4 wk) + Bone: …): 1490 mg/m3 | NEL (short-term, duration: 4 weeks, inhalation, F, Crl:CD(SD), Blood: Hematocrit (HCT) + Blood: Hemoglobin (HGB) + Blood: Red Blood Cell (RBC) + Liver: Alanine Aminotransferase (ALT), Blood + Liver: …): 149 mg/m3 | NEL (short-term, duration: 4 weeks, inhalation, M, Crl:CD(SD), Adrenal: Adrenal Gland Weight, Absolute + Adrenal: Adrenal Gland Weight, Absolute, Recovery + Adrenal: Adrenal Gland Weight, Relative + …): 1490 mg/m3 | LEL (short-term, duration: 4 weeks, inhalation, M, Crl:CD(SD), Bone: Decalcification, Trabeculae (4 wk) + Bone: Decalcification, Trabeculae (8 wk) + Kidney: Total Protein (TP), Urine + Liver: Albumin (A…): 1490 mg/m3 | NEL (short-term, duration: 4 weeks, inhalation, M, Crl:CD(SD), Kidney: Total Protein (TP), Urine + Liver: Albumin (A), Blood + Liver: Liver Weight, Absolute + Liver: Liver Weight, Relative + Liver: Liver…): 149 mg/m3 | LEL [3]: 25 mg/kg-day | NEL [3]: 5 mg/kg-day | NEL (short-term, duration: 28 days, oral, gavage, F, Crl:CD(SD), Teeth: Teeth, Mottled): 125 mg/kg-day | LEL [4]: 225 mg/kg-day | NEL [4]: 75 mg/kg-day | LEL [5]: 225 mg/kg-day | NEL [5]: 75 mg/kg-day | LEL [6]: 75 mg/kg-day | NEL [6]: 25 mg/kg-day | NEL (short-term, duration: 28 days, oral, gavage, M, Crl:CD(SD), Liver: Liver Weight, Relative + Liver: Liver, Enlarged): 125 mg/kg-day | LEL [7]: 25 mg/kg-day | NEL [7]: 5 mg/kg-day | NEL (subchronic, duration: 90 days, oral, gavage, F, Crl:CD(SD), Adrenal: Adrenal Gland Weight, Absolute + Adrenal: Adrenal Gland Weight, Relative + Blood: Basophils + Blood: Calcium (CA), Blood + Blood: …): 250 mg/kg-day | LEL [8]: 125 mg/kg-day | NEL [8]: 25 mg/kg-day | LEL [9]: 125 mg/kg-day | NEL [9]: 25 mg/kg-day | LEL [10]: 25 mg/kg-day | NEL [10]: 5 mg/kg-day | LEL [11]: 250 mg/kg-day | NEL [11]: 125 mg/kg-day | NEL (subchronic, duration: 90 days, oral, gavage, F, Crl:CD(SD), Blood: Inorganic Phosphorous (PHOS) + Blood: Triglycerides (TRIG) + Calcium (CA) + Kidney: Blood Urea Nitrogen (BUN), Blood + Kidney: …): 250 mg/kg-day | LOAEL (subchronic, duration: 90 days, oral, gavage, F, Crl:CD(SD), Cardiovascular: Heart: Heart Weight, Absolute + Cardiovascular: Heart: Heart Weight, Relative + Endocrine: Adrenal: Adrenal Gland Weight, …): 25 mg/kg-day | LOAEL [12]: 125 mg/kg-day | NOAEL [12]: 25 mg/kg-day | LOAEL [13]: 25 mg/kg-day | NOAEL [13]: 5 mg/kg-day | LEL [14]: 25 mg/kg-day | NEL [14]: 5 mg/kg-day | LOAEL [15]: 250 mg/kg-day | NOAEL [15]: 125 mg/kg-day | LEL [16]: 250 mg/kg-day | NEL [16]: 125 mg/kg-day | LOAEL [17]: 25 mg/kg-day | NOAEL [17]: 5 mg/kg-day | NOAEL (subchronic, duration: 90 days, oral, gavage, F, Sprague-Dawley, Other Systems: Tooth: Tooth Discoloration + Other Systems: Tooth: Tooth Discoloration, Recovery + Other Systems: Tooth: Tooth Findings, …): 250 mg/kg-day | NEL (subchronic, duration: 90 days, oral, gavage, M, Crl:CD(SD), Adrenal: Adrenal Gland Weight, Absolute + Adrenal: Adrenal Gland Weight, Relative + Blood: Basophils + Blood: Calcium (CA), Blood + Blood: …): 250 mg/kg-day | LEL [18]: 25 mg/kg-day | NEL [18]: 5 mg/kg-day | LEL [19]: 25 mg/kg-day | NEL [19]: 5 mg/kg-day | LEL [20]: 250 mg/kg-day | NEL [20]: 125 mg/kg-day | LEL [21]: 125 mg/kg-day | NEL [21]: 25 mg/kg-day | LEL [22]: 125 mg/kg-day | NEL [22]: 25 mg/kg-day | LEL [23]: 250 mg/kg-day | NEL [23]: 125 mg/kg-day | LOAEL (subchronic, duration: 90 days, oral, gavage, M, Crl:CD(SD), Cardiovascular: Heart: Heart Weight, Absolute + Cardiovascular: Heart: Heart Weight, Relative + Endocrine: Adrenal: Adrenal Gland Weight, …): 25 mg/kg-day | LOAEL [24]: 125 mg/kg-day | NOAEL [24]: 25 mg/kg-day | LOAEL [25]: 25 mg/kg-day | NOAEL [25]: 5 mg/kg-day | LOAEL (subchronic, duration: 90 days, oral, gavage, M, Crl:CD(SD), Immune: Blood: Basophils + Immune: Blood: Eosinophils + Immune: Blood: Lymphocyte + Immune: Blood: Monocytes + Immune: Blood: Neutrophils + …): 250 mg/kg-day | LOAEL (subchronic, duration: 90 days, oral, gavage, M, Crl:CD(SD), Other Systems: Eye: Ophthalmology + Other Systems: Nasal Cavity: Nasal Cavity/Tubinates Inflammation, Chronic, Focal/Multifocal + Other …): 125 mg/kg-day and 250 mg/kg-day | LOAEL (subchronic, duration: 90 days, oral, gavage, M, Crl:CD(SD), Reproductive: Epididymis: Epididymis Weight, Absolute + Reproductive: Epididymis: Epididymis Weight, Relative + Reproductive: Testis: Testis…): 5 mg/kg-day | LOAEL [26]: 25 mg/kg-day | NOAEL [26]: 5 mg/kg-day | NOAEL (subchronic, duration: 90 days, oral, gavage, M, Sprague-Dawley, Other Systems: Blood: Potassium (K) + Other Systems: Tooth: Tooth Discoloration + Other Systems: Tooth: Tooth Discoloration, Recovery + …): 250 mg/kg-day
